From publication PMC9861386, “N-Heterocyclic Carbene-Iridium Complexes as Photosensitizers for In Vitro Photodynamic Therapy to Trigger Non-Apoptotic Cell Death in Cancer Cells” (Molecules, 2023)

Experiments:
[1] = tested on: PARP, caspase-7 and caspase-8 processing; assay: Western blot of apoptotic biomarkers; type: cell-based, human; settings: 458 nm irradiation, 72 h
Text: Its effects on apoptotic biochemical markers by Western blotting analysis in MCF7/FasR cells and its Bcl-xL-overexpressed counterpart in comparison with the apoptotic inducer TNFα were examined (Figure 13). Cleavage-mediated inactivation of DNA repair enzyme poly(ADP-ribose) polymerase (PARP) by executioner caspases (e.g., caspase-3, caspase-7) has been considered as a marker of apoptotic cell death. The treatment with TNFα was associated with the proteolytic cleavage of PARP (decreased in 113 kDa full-length, increased in apoptotic 89 kDa fragment) in MCF7/FasR cells (Figure 13A). Since the MCF7 cell line lacks caspase-3 due to the functional deletion of the CASP-3 gene, caspase-7 is the only executioner caspase in these cells, as evidenced by the decreased content in the 35 kDa full-length pro-caspase-7 observed upon TNFα treatment (Figure 13A). The upstream caspase-8 that can directly process caspase-7 (extrinsic pathway) was also activated (loss of 55 kDa full-length pro-caspase-8). […] Importantly, the overexpression of Bcl-xL had no effect on apoptotic markers, regardless of the concentration of complex 4a used, implying that a MOMP-dependent mechanism is unlikely to be involved. In parallel experiments, cell viability and quantification of ATP and GSH levels were assessed. […] The early transient elevation of cytosolic ATP level is a necessary condition for the apoptotic cell death process, followed by a drop that correlates with the time course of cell death. […]
We next evaluated the effect of the pan-caspase inhibitor z-VAD-fmk on caspase signaling. […]
Cell lysate preparation and Western blotting were carried out as previously described. […] Proteins were visualized by ECL (Clarity Western ECL Substrate, Bio-Rad, Marnes-la-Coquette, France) using anti-rabbit or anti-mouse HRP-conjugated IgG (Bio-Rad); analysis of Western blots was assessed with a ChemiDoc imaging system (Bio-Rad).
Figure 13 Evaluation of apoptotic biomarkers. […] (B) MTT, ATP and GSH assays were evaluated in duplicate samples. […]

[2] = tested on: MCF7/FasR and MCF7/FasR/Bcl-xL cells; assay: GSH quantification (GSH-Glo); type: cell-based, human; settings: complex 4a all doses with 458 nm irradiation; TNFα 100 ng/mL; 72 h
Experimental: ATP and glutathione (GSH) contents were measured with the Promega CellTiter-Glo (Cat#G7570) and GSH-Glo (cat#6911) luminescent assays, respectively, according to the manufacturer’s recommendations.
Figure 13 Evaluation of apoptotic biomarkers. MCF7/FasR and MCF7/FasR/Bcl-xL cells were irradiated at 458 nm in presence of the indicated concentration of complex 4a or treated with […] TNFα for 72 h. (A) Cytosolic extracts from MCF7/FasR and MCF7/FasR/Bcl-xL cells were separated by SDS-PAGE and probed with anti-PARP, anti-caspase-7 and anti-caspase-8. Migrations indicated are: full-length PARP p113, cleaved PARP p89, full-length caspase-7 and full-length caspase-8. (B) MTT, ATP and GSH assays were evaluated in duplicate samples. Data are expressed as percent (%) of untreated cells and are the means of 3 independent experiments (***, p < 0.0001, NS, not significant).

CC(C)[n+]1ccn2[c]1[Ir-3]13([c]4ccccc4-c4cccc[n+]41)([c]1ccccc1-c1cccc[n+]13)[c]1n(cc[n+]1C(C)C)C2.F[P-](F)(F)(F)(F)F [Complex 4a]
processing of PARP, caspase-7 and caspase-8 at GI50 concentration ([1]; 50 nM, MCF7/FasR and MCF7/FasR/Bcl-xL): no processing of PARP, caspase-7 and caspase-8 were observed | processing of PARP, caspase-7 and caspase-8 at high concentration ([1]; 250 nM and 1 µM, MCF7/FasR): cleavage of PARP and processing of caspase-7 and caspase-8 | procaspase-7 expression and PARP activation ([1]; 500 nM, MCF7/FasR): significant loss of procaspase-7 expression | level of reduced GSH [2]: decreased
